Data taken from patent US20070128217A1 (priority 2003, published 2007).

Experiments:
[1] = test system: antibodies in sera from SARS patients (sera 1a, 1b, 2, 6, 37, 62, London, SARS-yellow, SARS-green); type: binding, human; design: Binding of serum 6 to linear peptides of protein X1 of SARS-CoV Urbani / Binding of serum 37 to linear peptides of protein X1 of SARS-CoV Urbani / Binding of serum 6 to looped/cyclic peptide (PEPSCAN-ELISA) / Binding of serum 37 to looped/cyclic peptide (PEPSCAN-ELISA) / Binding of serum 37 to looped/cyclic peptides of protein X1 of SARS-CoV Urbani / Binding of serum 6 to linear peptides of protein X2 / Binding of serum 37 to linear peptides of protein X2 / Binding of serum 37 to looped/cyclic peptides of protein X2 of SARS-CoV Urbani / Binding of serum 6 to linear peptides of protein M of SARS-CoV Urbani / Binding of serum 37 to linear peptides of protein M of SARS-CoV Urbani / Binding of serum 6 to looped/cyclic peptides of protein M of SARS-CoV Urbani / Binding of serum 37 to looped/cyclic peptides of protein M of SARS-CoV Urbani / Binding of serum 6 to linear peptides of protein X3 of SARS-CoV Urbani / Binding of serum 37 to linear peptides of protein X3 of SARS-CoV Urbani / Binding of serum 37 to looped/cyclic peptides of protein X3 of SARS-CoV Urbani / Binding of serum 6 to linear peptides of protein X4 of SARS-CoV Urbani / Binding of serum 37 to linear peptides of protein X4 of SARS-CoV Urbani / Binding of serum 37 to looped/cyclic peptides of protein X4 of SARS-CoV Urbani / Binding of serum 6 to linear peptides of protein X5 of SARS-CoV Urbani / Binding of serum 37 to linear peptides of protein X5 of SARS-CoV Urbani / Binding of serum 37 to looped/cyclic peptides of protein X5 of SARS-CoV Urbani / Binding of serum 6 to linear peptides of protein N of SARS-CoV Urbani / Binding of serum 37 to linear peptides of protein N of SARS-CoV Urbani / Binding of serum 6 to linear peptide (PEPSCAN-ELISA) / Binding of serum 1a to looped/cyclic peptides of protein N of SARS-CoV Urbani / Binding of serum 1b to looped/cyclic peptides of protein N of SARS-CoV Urbani / Binding of serum 2 to looped/cyclic peptides of protein N of SARS-CoV Urbani / Binding of serum 6 to looped/cyclic peptides of protein N of SARS-CoV Urbani / Binding of serum 37 to looped/cyclic peptides of protein N of SARS-CoV Urbani / Binding of serum 62 to looped/cyclic peptides of protein N of SARS-CoV Urbani / Binding of serum London to looped/cyclic peptides of protein N of SARS-CoV Urbani / Binding of serum SARS-green to looped/cyclic peptides of protein N of SARS-CoV Urbani: unit not given here
[2] = test system: control sera (pooled serum of ten healthy LUMC hospital workers; commercial negative donor pooled serum from the Dutch bloodbank); type: binding, human; design: Binding of Control serum LUMC to linear peptides / Binding of Control serum Blood-bank to linear peptides / Binding of Control serum LUMC to looped peptides / Binding of Control Serum Blood-Bank to Looped peptides / Binding of Control serum LUMC to linear peptides of the protein M of SARS-CoV Urbani / Binding of Control serum Blood-bank to linear peptides of the protein M of SARS-CoV Urbani / Binding of Control serum LUMC to looped peptides of the protein M of SARS-CoV Urbani / Binding of Control Serum Blood-Bank to Looped peptides of the protein M of SARS-CoV Urbani: unit not given here
[3] = test system: rabbit serum obtained by immunizing a rabbit with the SARS-CoV strain Frankfurt 1; type: binding; design: Binding of a rabbit serum to linear peptides / Binding of a rabbit serum to looped peptides / Rabbit serum linear peptides / Rabbit serum looped peptides / Binding of a rabbit serum to linear peptides of protein N of SARS-CoV Urbani (Rabbit serum linear peptides) / Binding of a rabbit serum to looped/cyclic peptides of protein N of SARS-CoV Urbani (Rabbit serum looped peptides): unit not given here

| Sequence | Binding of serum 1a to linear peptides of protein X1 of SARS-CoV Urbani [1] | Binding of serum 1a to looped/cyclic peptide (PEPSCAN-ELISA) [1] | Binding of serum 1b to linear peptides of protein X1 of SARS-CoV Urbani [1] | Binding of serum 1b to looped/cyclic peptide (PEPSCAN-ELISA) [1] | Binding of serum 2 to linear peptides of protein X1 of SARS-CoV Urbani [1] | Binding of serum 2 to looped/cyclic peptide (PEPSCAN-ELISA) [1] | Binding of serum 6 to linear peptides of protein X1 of SARS-CoV Urbani [1] | Binding of serum 6 to looped/cyclic peptide (PEPSCAN-ELISA) [1] | Binding of serum 37 to linear peptides of protein X1 of SARS-CoV Urbani [1] | Binding of serum 37 to looped/cyclic peptide (PEPSCAN-ELISA) [1] | Binding of serum 62 to linear peptides of protein X1 of SARS-CoV Urbani [1] | Binding of serum 62 to looped/cyclic peptide (PEPSCAN-ELISA) [1] | Binding of serum London to linear peptides of protein X1 of SARS-CoV Urbani [1] | Binding of serum London to looped/cyclic peptide (PEPSCAN-ELISA) [1] | Binding of serum SARS-green to linear peptides of protein X1 of SARS-CoV Urbani [1] | Binding of serum SARS-green to looped/cyclic peptide (PEPSCAN-ELISA) [1] | Binding of serum SARS-yellow to linear peptides of protein X1 of SARS-CoV Urbani [1] | Binding of serum SARS-yellow to looped/cyclic peptide (PEPSCAN-ELISA) [1] | Binding of Control Serum Blood-Bank to Looped peptides [2] | Binding of Control serum Blood-bank to linear peptides [2] | other results |
| --- | --- | --- | --- | --- | --- | --- | --- | --- | --- | --- | --- | --- | --- | --- | --- | --- | --- | --- | --- | --- | --- |
| FLYLYALIYFLQCIN | 0.7 | 0.4 | 0.5 | 0.3 | 0.5 | 0.3 | 0.4 | 0.2 | 0.5 | 0.4 | 0.6 | 0.4 | 0.2 | 0.2 | 0.2 | 0.2 | 0.5 | 0.3 | 0.5 | 0.5 | Binding of Control serum LUMC to linear peptides [2]: 0.5; Binding of Control serum LUMC to looped peptides [2]: 0.4; Binding of a rabbit serum to linear peptides [3]: 0.1; Binding of a rabbit serum to looped peptides [3]: 0.4 |
| FMRFFTLGSITAQPV | 0.8 | 0.5 | 0.6 | 0.3 | 0.8 | 0.4 | 0.5 | 0.4 | 0.7 | 0.5 | 0.7 | 0.5 | 0.3 | 0.2 | 0.3 | 0.2 | 0.7 | 0.3 | 0.6 | 0.7 | Binding of Control serum LUMC to linear peptides [2]: 0.7; Binding of Control serum LUMC to looped peptides [2]: 0.6; Binding of a rabbit serum to linear peptides [3]: 0.3; Binding of a rabbit serum to looped peptides [3]: 0.4 |
| FQFICNLLLLFVTIY | 0.6 | 0.2 | 0.5 | 0.0 | 0.5 | 0.0 | 0.3 | 0.2 | 0.5 | 0.0 | 0.5 | 0.2 | 0.2 | 0.1 | 0.1 | 0.4 | 0.5 | 0.0 | 0.4 | 0.5 | Binding of Control serum LUMC to linear peptides [2]: 0.5; Binding of Control serum LUMC to looped peptides [2]: 0.3; Binding of a rabbit serum to linear peptides [3]: 0.9; Binding of a rabbit serum to looped peptides [3]: 0.0 |
